Data as given in PubChem BioAssay (NCI).
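Each compound was tested at five concentrations against cells in 96-well plates for 48 hours. The concentration for full growth arrest is given as TGI.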

Experiments:
Experiment in all cases: NCI-60 cell line screen, 48 h
TK-10 renal = tested on: TK-10 renal
T-47D breast = tested on: T-47D breast
OVCAR-4 ovarian = tested on: OVCAR-4 ovarian
CAKI-1 renal = tested on: CAKI-1 renal
A498 renal = tested on: A498 renal
EKVX NSCLC = tested on: EKVX NSCLC
HCC-2998 colon = tested on: HCC-2998 colon
SN12C renal = tested on: SN12C renal
K-562 leukemia = tested on: K-562 leukemia
NCI-H226 lung = tested on: NCI-H226 lung
MALME-3M melanoma = tested on: MALME-3M melanoma
IGROV1 ovarian = tested on: IGROV1 ovarian
UO-31 renal = tested on: UO-31 renal
A549 NSCLC = tested on: A549 NSCLC
SNB-75 CNS = tested on: SNB-75 CNS
COLO 205 colon = tested on: COLO 205 colon
OVCAR-5 ovarian = tested on: OVCAR-5 ovarian
BT-549 breast = tested on: BT-549 breast
U251 CNS = tested on: U251 CNS
SK-MEL-2 melanoma = tested on: SK-MEL-2 melanoma
HOP-62 NSCLC = tested on: HOP-62 NSCLC
PC-3 prostate = tested on: PC-3 prostate
KM12 colon = tested on: KM12 colon
MDA-MB-435 = tested on: MDA-MB-435
NCI/ADR-RES ovarian = tested on: NCI/ADR-RES ovarian
ACHN renal = tested on: ACHN renal
OVCAR-3 ovarian = tested on: OVCAR-3 ovarian
786-0 renal = tested on: 786-0 renal
DU-145 prostate = tested on: DU-145 prostate
MOLT-4 leukemia = tested on: MOLT-4 leukemia
HL-60(TB) leukemia = tested on: HL-60(TB) leukemia
HCT-116 colon = tested on: HCT-116 colon
M14 melanoma = tested on: M14 melanoma
SF-268 CNS = tested on: SF-268 CNS
NCI-H23 lung = tested on: NCI-H23 lung
NCI-H522 lung = tested on: NCI-H522 lung
RPMI-8226 leukemia = tested on: RPMI-8226 leukemia
RXF 393 renal = tested on: RXF 393 renal
HS 578T breast = tested on: HS 578T breast
SNB-19 CNS = tested on: SNB-19 CNS
SR leukemia = tested on: SR leukemia
HT29 colon = tested on: HT29 colon
LOX IMVI melanoma = tested on: LOX IMVI melanoma
CCRF-CEM leukemia = tested on: CCRF-CEM leukemia
SF-295 CNS = tested on: SF-295 CNS
UACC-62 melanoma = tested on: UACC-62 melanoma
SK-MEL-5 melanoma = tested on: SK-MEL-5 melanoma
MDA-N = tested on: MDA-N
MDA-MB-231 breast = tested on: MDA-MB-231 breast
SW-620 colon = tested on: SW-620 colon
SK-OV-3 ovarian = tested on: SK-OV-3 ovarian
SK-MEL-28 melanoma = tested on: SK-MEL-28 melanoma
NCI-H460 lung = tested on: NCI-H460 lung
SF-539 CNS = tested on: SF-539 CNS
MCF7 breast = tested on: MCF7 breast
UACC-257 melanoma = tested on: UACC-257 melanoma
OVCAR-8 ovarian = tested on: OVCAR-8 ovarian
HCT-15 colon = tested on: HCT-15 colon
HOP-92 NSCLC = tested on: HOP-92 NSCLC
HOP-18 NSCLC = tested on: HOP-18 NSCLC
KM20L2 colon = tested on: KM20L2 colon
LXFL 529 NSCLC = tested on: LXFL 529 NSCLC
SNB-78 CNS = tested on: SNB-78 CNS
M19-MEL melanoma = tested on: M19-MEL melanoma
DLD-1 colon = tested on: DLD-1 colon

SMILES: O=[N+]([O-])C(/C(Cl)=C(\Cl)Br)=C(/Cl)SCc1ccccc1
- TGI (TK-10 renal): 10.8 µM
- TGI (T-47D breast): 10.9 µM
- TGI (OVCAR-4 ovarian): 11.4 µM
- TGI (CAKI-1 renal): 3.78 µM
- TGI (A498 renal): 21.2 µM
- TGI (EKVX NSCLC): 14.5 µM
- TGI (HCC-2998 colon): 25.1 µM
- TGI (SN12C renal): 11.3 µM
- TGI (K-562 leukemia): 4.12 µM
- TGI (NCI-H226 lung): 36.7 µM
- TGI (MALME-3M melanoma): 18.7 µM
- TGI (IGROV1 ovarian): 13.1 µM
- TGI (UO-31 renal): 5.73 µM
- TGI (A549 NSCLC): 33.5 µM
- TGI (SNB-75 CNS): 13.5 µM
- TGI (COLO 205 colon): 4.86 µM
- TGI (OVCAR-5 ovarian): 26.2 µM
- TGI (BT-549 breast): 7.38 µM
- TGI (U251 CNS): 18.5 µM
- TGI (SK-MEL-2 melanoma): 18.1 µM
- TGI (HOP-62 NSCLC): 37.5 µM
- TGI (PC-3 prostate): 14.3 µM
- TGI (KM12 colon): 30 µM
- TGI (MDA-MB-435): 3.79 µM
- TGI (NCI/ADR-RES ovarian): 8.62 µM
- TGI (ACHN renal): 8.64 µM
- TGI (OVCAR-3 ovarian): 8.83 µM
- TGI (786-0 renal): 4.06 µM
- TGI (DU-145 prostate): 25.7 µM
- TGI (MOLT-4 leukemia): 3.35 µM
- TGI (HL-60(TB) leukemia): 2.18 µM
- TGI (HCT-116 colon): 7.11 µM
- TGI (M14 melanoma): 9.15 µM
- TGI (SF-268 CNS): 9.76 µM
- TGI (NCI-H23 lung): 14.9 µM
- TGI (NCI-H522 lung): 4.79 µM
- TGI (RPMI-8226 leukemia): 5.42 µM
- TGI (RXF 393 renal): 4.85 µM
- TGI (HS 578T breast): 50.7 µM
- TGI (SNB-19 CNS): 38.8 µM
- TGI (SR leukemia): 13.4 µM
- TGI (HT29 colon): 5.54 µM
- TGI (LOX IMVI melanoma): 3.95 µM
- TGI (CCRF-CEM leukemia): 6.25 µM
- TGI (SF-295 CNS): 35.9 µM
- TGI (UACC-62 melanoma): 16.5 µM
- TGI (SK-MEL-5 melanoma): 15 µM
- TGI (MDA-N): 4.09 µM
- TGI (MDA-MB-231 breast): 7.96 µM
- TGI (SW-620 colon): 4.61 µM
- TGI (SK-OV-3 ovarian): 33.7 µM
- TGI (SK-MEL-28 melanoma): 5.98 µM
- TGI (NCI-H460 lung): 30.5 µM
- TGI (SF-539 CNS): 25.5 µM
- TGI (MCF7 breast): 11.2 µM
- TGI (UACC-257 melanoma): 22.1 µM
- TGI (OVCAR-8 ovarian): 8.13 µM
- TGI (HCT-15 colon): 8.53 µM
- TGI (HOP-92 NSCLC): 5.34 µM

SMILES: COC(=O)c1c(CC(Cc2ccc3c(c2)CCCC3)C(=O)O)ccc2c1CCCC2 (configuration not stated)
- TGI (TK-10 renal): > 100 µM
- TGI (T-47D breast): > 100 µM
- TGI (OVCAR-4 ovarian): > 100 µM
- TGI (CAKI-1 renal): > 100 µM
- TGI (A498 renal): 76.3 µM
- TGI (EKVX NSCLC): 68.6 µM
- TGI (HCC-2998 colon): 70.2 µM
- TGI (SN12C renal): > 100 µM
- TGI (K-562 leukemia): > 100 µM
- TGI (NCI-H226 lung): > 100 µM
- TGI (MALME-3M melanoma): > 100 µM
- TGI (IGROV1 ovarian): > 100 µM
- TGI (UO-31 renal): 62.3 µM
- TGI (A549 NSCLC): > 100 µM
- TGI (SNB-75 CNS): > 100 µM
- TGI (COLO 205 colon): 32.9 µM
- TGI (OVCAR-5 ovarian): > 100 µM
- TGI (BT-549 breast): > 100 µM
- TGI (U251 CNS): > 100 µM
- TGI (SK-MEL-2 melanoma): 39.5 µM
- TGI (HOP-62 NSCLC): 51.7 µM
- TGI (PC-3 prostate): > 100 µM
- TGI (KM12 colon): 77.2 µM
- TGI (MDA-MB-435): > 100 µM
- TGI (NCI/ADR-RES ovarian): 34.4 µM
- TGI (ACHN renal): > 100 µM
- TGI (OVCAR-3 ovarian): 34.3 µM
- TGI (786-0 renal): > 100 µM
- TGI (DU-145 prostate): > 100 µM
- TGI (MOLT-4 leukemia): > 100 µM
- TGI (HL-60(TB) leukemia): 46.5 µM
- TGI (HCT-116 colon): 33.1 µM
- TGI (M14 melanoma): > 100 µM
- TGI (SF-268 CNS): > 100 µM
- TGI (NCI-H23 lung): > 100 µM
- TGI (NCI-H522 lung): 34.1 µM
- TGI (RPMI-8226 leukemia): 73.3 µM
- TGI (RXF 393 renal): > 100 µM
- TGI (HS 578T breast): 79.4 µM
- TGI (SNB-19 CNS): > 100 µM
- TGI (SR leukemia): 91.6 µM
- TGI (HT29 colon): > 100 µM
- TGI (LOX IMVI melanoma): 31.4 µM
- TGI (CCRF-CEM leukemia): > 100 µM
- TGI (SF-295 CNS): > 100 µM
- TGI (UACC-62 melanoma): 52.4 µM
- TGI (SK-MEL-5 melanoma): > 100 µM
- TGI (MDA-N): > 100 µM
- TGI (MDA-MB-231 breast): > 100 µM
- TGI (SW-620 colon): > 100 µM
- TGI (SK-OV-3 ovarian): > 100 µM
- TGI (SK-MEL-28 melanoma): > 100 µM
- TGI (NCI-H460 lung): 47.9 µM
- TGI (SF-539 CNS): 44.9 µM
- TGI (MCF7 breast): 84.1 µM
- TGI (UACC-257 melanoma): 33.3 µM
- TGI (OVCAR-8 ovarian): > 100 µM
- TGI (HCT-15 colon): 33.8 µM
- TGI (HOP-92 NSCLC): 50.9 µM

SMILES: CC1(C)COC2C(N(Cc3ccccc3)Cc3ccccc3)C(=O)N21 (configuration not stated)
- TGI (TK-10 renal): > 100 µM
- TGI (OVCAR-4 ovarian): > 100 µM
- TGI (CAKI-1 renal): > 100 µM
- TGI (A498 renal): > 100 µM
- TGI (EKVX NSCLC): > 100 µM
- TGI (HCC-2998 colon): > 100 µM
- TGI (SN12C renal): > 100 µM
- TGI (K-562 leukemia): 82.9 µM
- TGI (NCI-H226 lung): > 100 µM
- TGI (MALME-3M melanoma): > 100 µM
- TGI (IGROV1 ovarian): > 100 µM
- TGI (UO-31 renal): > 100 µM
- TGI (A549 NSCLC): > 100 µM
- TGI (SNB-75 CNS): 41.2 µM
- TGI (COLO 205 colon): 61.8 µM
- TGI (OVCAR-5 ovarian): > 100 µM
- TGI (HOP-18 NSCLC): > 100 µM
- TGI (U251 CNS): 70.8 µM
- TGI (HOP-62 NSCLC): > 100 µM
- TGI (KM12 colon): > 100 µM
- TGI (ACHN renal): > 100 µM
- TGI (OVCAR-3 ovarian): > 100 µM
- TGI (786-0 renal): > 100 µM
- TGI (MOLT-4 leukemia): > 100 µM
- TGI (HL-60(TB) leukemia): 62.9 µM
- TGI (HCT-116 colon): > 100 µM
- TGI (M14 melanoma): 56.2 µM
- TGI (SF-268 CNS): 82.1 µM
- TGI (NCI-H23 lung): > 100 µM
- TGI (KM20L2 colon): > 100 µM
- TGI (NCI-H522 lung): 45.6 µM
- TGI (RPMI-8226 leukemia): 91.3 µM
- TGI (LXFL 529 NSCLC): > 100 µM
- TGI (RXF 393 renal): 42.5 µM
- TGI (SNB-19 CNS): 71.8 µM
- TGI (SR leukemia): 54.7 µM
- TGI (HT29 colon): > 100 µM
- TGI (LOX IMVI melanoma): > 100 µM
- TGI (CCRF-CEM leukemia): > 100 µM
- TGI (SNB-78 CNS): > 100 µM
- TGI (SF-295 CNS): 88.8 µM
- TGI (UACC-62 melanoma): 61 µM
- TGI (SK-MEL-5 melanoma): > 100 µM
- TGI (SW-620 colon): > 100 µM
- TGI (SK-OV-3 ovarian): 66.1 µM
- TGI (SK-MEL-28 melanoma): > 100 µM
- TGI (NCI-H460 lung): > 100 µM
- TGI (SF-539 CNS): 69.8 µM
- TGI (M19-MEL melanoma): > 100 µM
- TGI (DLD-1 colon): > 100 µM
- TGI (UACC-257 melanoma): > 100 µM
- TGI (OVCAR-8 ovarian): > 100 µM
- TGI (HCT-15 colon): > 100 µM
- TGI (HOP-92 NSCLC): 80.5 µM
